Source: patent US7893299B2, “Interleukin-1 and tumor necrosis factor-αmodulators; syntheses of such modulators and methods of using such modulators” (Nereus Pharmaceuticals, Inc., priority 2005, dated 2011)
Entries after “also recorded” stand apart in the source; their conditions may differ. Read-outs that look alike come from different tables or passages of the source.

Assays:
HPBMC = HPBMC cell viability, Resazurin; assay type: cell-based, Human; details: for EC50: HPBMC, 24 hr drug exposure, read-out: EC50 Inhibition of cell growth
Protocol: Eighty μl of 3.1×10^5/ml Human Peripheral Blood Mononuclear cells (HPBMC) were seeded in Costar 3904 96-well plate in LGM-3 medium and cultured for 12 hr at 37° C., 5% CO2 and 95% humidified air. 10 μl of 8-point half-log serial dilutions of LT-1-85, CC-3-19, CC-3-13P, formula (IIB-A1) and CC-3-22 prepared in LGM-3 medium was added to the cells and incubated for 1 hr. Subsequently, 10 μl of 500 ng/ml lipopolysaccharide (LPS) diluted in LGM-3 medium from 1 mg/ml stock solution was added to the cells and incubation proceeded for another 4 hr at 37° C., 5% CO2 and 95% humidified air. SB203580, a known p38 MAP kinase inhibitor and DMSO were used as positive and negative controls, respectively. After 4 hr stimulation with LPS, the level of TNF-α from each sample was analyzed by using the human TNF-α cytoset ELISA kit. EC50 values (the drug concentration at which 50% of the maximal observed TNF-α production is inhibited) were determined using a standard sigmoidal dose response curve fitting algorithm (Prism 2.0, GraphPad Software Inc). A duplicate set of cell plates were assayed for cell viability using the Resazurin dye after the cells were incubated with test compounds for 24 hr. The fluorescence of the reduction product of Resazurin was measured using a Fusion microplate fluorometer (Packard Bioscience) with λex=535 nm and λem=590 nm filters. EC50 values (the drug concentration at which 50% of the maximal observed growth inhibition is established) were determined using a standard sigmoidal dose response curve fitting algorithm (Prism 2.0, GraphPad Software Inc).

HEK-293 cells = experiment: cell growth inhibition, HEK-293, Resazurin, 1% FBS; assay type: cell-based, Human; details: 48 hr of drug exposure
Protocol: Human prostate adenocarcinoma (PC-3; CRL-1435), multiple myeloma (RPMI 8226; CCL-155) and embryonic kidney (HEK-293; CRL-1573) cells were all purchased from ATCC and maintained in appropriate culture media. The cells were cultured in an incubator at 37° C. in 5% CO2 and 95% humidified air.
For cell growth inhibition assays, PC-3 and HEK-293 cells were seeded at 5×10^3 and 1.5×10^3 cells/well respectively in 90 μl media containing 1% (v/v) FBS into 96 well (Corning; 3904) black-walled, clear-bottom tissue culture plates and the plates were incubated overnight to allow cells to establish and enter log phase growth. RPMI 8226 cells were seeded at 2×10^4 cells/well respectively in 90 μl media containing 1% (v/v) FBS into 96 well plates on the day of the assay. 4 mg/ml stock solutions of the compounds were prepared in 100% DMSO and stored at −20° C. The compounds were serially diluted and added in triplicate to the test wells. LT-1-85 was tested at concentrations ranging from 27 μM to 8.6 nM. Concentrations ranging from 30 μM to 9.7 nM were tested for CC-3-13P. Formula (IIB-A1) was tested at concentrations ranging from 26 μM to 8.4 nM. The plates were returned to the incubator for 48 hours. The final concentration of DMSO was 0.25% in all samples.
Following 48 hours of drug exposure, 10 μl of 0.2 mg/ml Resazurin in Mg2+, Ca2+ free phosphate buffered saline was added to each well and the plates were returned to the incubator for 3-6 hours. Since living cells metabolize Resazurin, the fluorescence of the reduction product of Resazurin was measured using a Fusion microplate fluorometer (Packard Bioscience) with λex=535 nm and λem=590 nm filters. Resazurin dye in medium without cells was used to determine the background, which was subtracted from the data for all experimental wells. […] Where the maximum inhibition of cell growth was less than 50%, an EC50 value was not determined. The data in Table 25 summarize the growth inhibitory effects of LT-1-85, CC-3-13P and formula (IIB-A1) against HEK-293, PC-3 and RPMI 8226 cells. […]

TPA-induced ear edema = experiment: TPA-induced mouse ear edema model; assay type: in vivo; details: 500 ng per ear topically with TPA, 4 h
Protocol: 2.5 μg of TPA dissolved in 20 μl of DMSO, was applied to both surfaces of the right ear of each mouse. The left ear (control) received the vehicle (DMSO). Tested compounds were administered topically (500 ng per ear in 20 μl of DMSO) simultaneously with TPA application. The reference drug, indomethacin, was administered at the same doses. After 4 h, the animals were killed by cervical dislocation and a 6 mm diameter disc from each ear was removed with a metal punch and weighed. Ear edema was calculated by subtracting the weight of the left ear (vehicle) from the right ear (treatment). Ear sections were homogenized in 750 μl of saline. After centrifugation at 10000×g for 15 min at 4° C., myeloperoxidase (MPO) activity was measured in supernatants.

THP-1 cells = experiment: resazurin viability assay in THP-1 cells; assay type: cell-based, human; details: * mild, ** marked reduction in viability, in % (unit assumed)
Protocol: The ability to inhibit TNF-α production was analyzed in THP-1 cells, a human acute monocytic leukemia cell line that is widely used to assess monocyte functions. In order to induce maturation, THP-1 cells were plated at 1×10^6 cells/ml and pretreated with 5 nM PMA for two days. Differentiated THP-1 cells were pretreated with various concentrations of TTL3 or its analogs for 1 hour, followed by a 4 hour incubation with 1 μg of LPS (Sigma, St. Louse, Mo.). The p38 inhibitor (SB 203580; Sigma, St. Louis, Mo.) was used as a positive control. Supernatants were collected and stored at −80° C. until assayed for TNF-α activity. A resazurin assay was performed for each analog to evaluate the effects on cell metabolism and viability.
A preparation of the dye resazurin, commercially-available as alamarBlue™ (Biosource International Inc., 820 Flynn Road, Camarillo, Calif.), was used for the cytotoxicity assays described herein. The assays and experiments described herein were conducted in substantially the same manner as described in the scientific literature, for example, in Magnani, E. and Bettini, E., “Resazurin detection of energy metabolism changes in serum-starved PC12 cells and of neuroprotective agent effect,” Brain Res Protoc., 2000 July; 5(3):266-72 and in Nociari M. M., Shalev A., Benias P., and Russo C. J, “A novel one-step, highly sensitive fluorometric assay to evaluate cell-mediated cytotoxicity,” Immunol. Methods 213, 157-167 (1998), see also U.S. Pat. No. 5,501,959, entitled “Antibiotic and Cytotoxic Drug Susceptibility Assays using Resazurin and Poising Agents,” the entire specification of which is incorporated herein by reference.

SMILES	EC50 (HPBMC; Homo sapiens, 24 h)	cell growth of HPBMC (in words) (HPBMC; concentrations up to 26 μM)	EC50 (HEK-293 cells; Homo sapiens, HEK293, 48 h)	ear edema (TPA-induced ear edema)	myeloperoxidase activity (TPA-induced ear edema)	ear edema (TPA-induced ear edema; listed as formula (IIB-A1))	Effect on Cell Viability (THP-1 cells; 100 ng/ml)	Effect on Cell Viability (THP-1 cells; 1 ug/ml)	Effect on Cell Viability (THP-1 cells; 10 ug/ml)	EC50 (HPBMC)	EC50 (HEK-293 cells)
C=C[C@@]1(C)CCC=C2[C@H]1CC[C@@H]1[C@](C)(C(=O)NC3CCCCC3)CCC[C@@]21C [Formula (IIB-A1), N-Cyclohexylamide Derivative of TTL]	> 26 µM	did not inhibit	> 26 µM	inhibit TPA-induced ear edema	significantly attenuated	significantly reduced					
C=C[C@@]1(C)CCC=C2[C@H]1CC[C@@H]1[C@](C)(C(=O)N3CCOCC3)CCC[C@@]21C [LT-1-85]	3.8 µM		23 µM				100	100	80*	3.6 µM	22 µM
C=C[C@@]1(C)CCC=C2[C@H]1CC[C@@H]1[C@](C)(C(=O)OC)CCC[C@@]21C [TTL3]				significantly reduced; also recorded: inhibit TPA-induced ear edema	significantly attenuated		100	100	100		
